{"source": "patent US12043670B2", "about": "“Anti-BCMA antibody-drug conjugates and methods of use” (Eisai R&D Management Co., Ltd., priority 2020, dated 2024)", "key": {"KMS-11 cells": {"tested_on": "KMS-11 cells", "assay": "6-day CellTiter-Glo cell viability, KMS-11", "assay_type": "cell-based, human"}, "SF3b complex": {"target": "T1, SF3b complex (Homo sapiens, UniProt O75533+Q7RTV0)", "T1 construct": "endogenous in cells; host or cells: nuclear extracts", "assay": "SF3B1 binding / scintillation proximity assay (SPA)", "details": "competition with 2.5 nM [3H]-pladienolide B probe", "experimental": "A scintillation proximity assay was performed to measure the binding affinity of compounds (“payloads”) to the SF3b complex. Batch immobilization of anti-SF3B1 antibody (MBL) to anti-mouse PVT SPA scintillation beads (PerkinElmer) was prepared. For every 2.5 mg of nuclear extracts, 5 μg of anti-SF3B1 antibody and 1.5 mg of beads were mixed in 150 μL PBS. The antibody-bead mixture was incubated for 30 min at room temperature (RT) and centrifuged at 18,000 g for 5 min. 150 μL PBS was used to resuspend every 1.5 mg antibody-bead mixture. The beads were suspended and added to the prepared nuclear extracts. The slurry was incubated for 2 hours at 4° C. with gentle mixing. The beads were then collected by centrifuging at 18,000 g for 5 min, and washed twice with PBS+0.1% Triton X-100. After a final centrifugation step, every 1.5 mg of beads was suspended with 150 μL of PBS. SF3b complexes were tested for [^3H]-labeled pladienolide B probe binding ([^3H]-PB), synthesized as previously described (Kotake et al. (2007) Nat Chem Biol. 3(9):570-5). 100 μL binding reactions were prepared with 50 μL bead slurry and by adding varying concentrations of PB or PB-OH, and after 30 min pre-incubation, 2.5 nM of [^3H]-PB was added. The mixture was incubated for 30 min, and luminescence signals were read using a MicroBeta2 Plate Counter (PerkinElmer). […]"}, "MOLP8 cells": {"tested_on": "MOLP8 cells", "assay": "CellTiter-Glo cell viability, MOLP8", "assay_type": "cell-based, human"}, "[1]": {"assay": "Chemical stability in buffer pH 5.5", "assay_type": "physicochemical", "details": "Mcilvane (Citrate-Phosphate) buffer pH 5.5, 37° C., read-out: Stability %, Mean, t1/2 pH 5.5 (converted)", "experimental": "Payloads were incubated in Mcilvane (Citrate-Phosphate) buffer, pH 5.5 (Boston Bioproducts; #BB-2466) at a final concentration of 20 μM (less than 0.5% DMSO from stock solution). The payload solution and the internal standard were pipetted into 96-well plates, run on UPLC (Waters Aquity H class), and analyzed for initial chromatographic signal (t=0). The column was a Waters UPLC HSS T31.8 μm 2.1×50 mm column (#186003538). A gradient of mobile phase A from 95% to 10% was employed over 1 min, where A was 0.1% formic acid in water and mobile phase B was 0.1% formic acid in acetonitrile (flow rate 0.9 mL/min). The remainder of the payload solution was kept in a plate shaker at 37° C. (Eppendorf ThermoMixer). Sample analyses by UPLC were repeated at 24, 72, and 96 hours post-incubation at 37° C. The area ratio response of the payload and internal standard was determined for three time points: time 0, day 1, and either day 3 or day 4. Time 0 was set to 100. The area ratio responses of the later time points were compared to time 0. Percent remaining was calculated as follows: (Area Ratio day X/Area Ratio time 0)*100=% remaining. The slope of the line was calculated in Excel comparing the log of % remaining and time point."}, "RPMI-8226 cells": {"tested_on": "RPMI-8226 cells", "assay": "6-day CellTiter-Glo cell viability, RPMI-8226", "assay_type": "cell-based, human"}, "MM1.R cells": {"tested_on": "MM1.R cells", "assay": "CellTiter-Glo cell viability, MM1.R", "assay_type": "cell-based, human", "details": "for GI50: Homo sapiens, MM.1R"}, "MM1.S cells": {"tested_on": "MM1.S cells", "assay": "CellTiter-Glo cell viability, MM1.S", "assay_type": "cell-based, human", "details": "for GI50: Homo sapiens"}, "LP-1 cells": {"tested_on": "LP-1 cells", "assay": "6-day CellTiter-Glo cell viability, LP-1", "assay_type": "cell-based, human"}, "NCI-H929 cells": {"tested_on": "NCI-H929 cells", "assay": "CellTiter-Glo cell viability, NCI-H929 (normal serum)", "assay_type": "cell-based, human", "details": "for GI50: Homo sapiens"}}, "note": "Read-outs that look alike come from different tables or passages of the source.", "data": [{"smiles": "CC[C@H](O)[C@@H](C)[C@H]1O[C@@H]1C[C@@](C)(O)/C=C/C=C(\\C)[C@H]1OC(=O)C[C@H](O)CC[C@@](C)(O)[C@@H](OC(=O)N2CCNCC2)/C=C/[C@@H]1C", "note": "[D1, (2S,3S,6S,7R,10R,E)-7,10-dihydroxy-2-((R,2E,4E)-6-hydroxy-7-((2R,3R)-3-((2R,3S)-3-hydroxypentan-2-yl)oxiran-2-yl)-6-methylhepta-2,4-dien-2-yl)-3,7-dimethyl-12-oxooxacyclododec-4-en-6-yl piperazine-1-carboxylate]", "values": [{"measurement": "GI50", "setting": "KMS-11 cells; Homo sapiens, KMS-11, 144 h", "value": 232, "unit": "nM"}, {"measurement": "AUC (nM * % relative viability)", "setting": "KMS-11 cells; KMS11 cells, 6 days", "value": 706.5255, "unit": "nM * % relative viability"}, {"measurement": "LD50", "setting": "KMS-11 cells; KMS11 cells, 6 days, CellTiter-Glo", "value": 485.9409, "unit": "nM"}, {"measurement": "RminAve", "setting": "KMS-11 cells; KMS11 cells, 6 days, negative = cell death vs T0", "value": "−99.3474", "unit": "%"}, {"measurement": "IC50", "setting": "SF3b complex", "value": 21.3, "unit": "nM"}, {"measurement": "GI50", "setting": "MOLP8 cells; Homo sapiens, MOLP-8, 144 h", "value": 150, "unit": "nM"}, {"measurement": "AUC (nM * % relative viability)", "setting": "MOLP8 cells; MOLP8 cells, 6 days", "value": 690.1106, "unit": "nM * % relative viability"}, {"measurement": "LD50", "setting": "MOLP8 cells; MOLP8 cells, 6 days, CellTiter-Glo", "value": 533.6503, "unit": "nM"}, {"measurement": "RminAve", "setting": "MOLP8 cells; MOLP8 cells, 6 days, negative = cell death vs T0", "value": "−99.755", "unit": "%"}, {"measurement": "half-life at 20 μM", "setting": "[1]", "value": 24, "unit": "h"}, {"measurement": "GI50", "setting": "RPMI-8226 cells; Homo sapiens, RPMI-8226, 144 h", "value": 122, "unit": "nM"}, {"measurement": "AUC (nM * % relative viability)", "setting": "RPMI-8226 cells; RPMI8226 cells, 6 days", "value": 648.8833, "unit": "nM * % relative viability"}, {"measurement": "LD50", "setting": "RPMI-8226 cells; RPMI8226 cells, 6 days, CellTiter-Glo", "value": 253.1965, "unit": "nM"}, {"measurement": "RminAve", "setting": "RPMI-8226 cells; RPMI8226 cells, 6 days, negative = cell death vs T0", "value": "−99.6002", "unit": "%"}, {"measurement": "GI50", "setting": "MM1.R cells; 96 h, read-out: CTGlo Mean GI50 MM1.R 96 h", "value": 147, "unit": "nM"}, {"measurement": "GI50", "setting": "MM1.R cells; 144 h", "value": 89.3, "unit": "nM"}, {"measurement": "AUC (nM * % relative viability)", "setting": "MM1.R cells; MM1R cells, 6 days", "value": 640.2408, "unit": "nM * % relative viability"}, {"measurement": "LD50", "setting": "MM1.R cells; MM1R cells, 6 days, CellTiter-Glo", "value": 283.0093, "unit": "nM"}, {"measurement": "RminAve", "setting": "MM1.R cells; MM1R cells, 6 days, negative = cell death vs T0", "value": "−99.9109", "unit": "%"}, {"measurement": "CTGlo Mean LD50 MM1.R 96 h", "setting": "MM1.R cells; payload alone, MM1.R, 96 h", "value": 510.8, "unit": "nM"}, {"measurement": "GI50", "setting": "MM1.S cells; MM1.S, 96 h, read-out: CTGlo Mean GI50 MM1.S 96 h", "value": 37.1, "unit": "nM"}, {"measurement": "GI50", "setting": "MM1.S cells; MM1.S, 144 h", "value": 88.4, "unit": "nM"}, {"measurement": "AUC (nM * % relative viability)", "setting": "MM1.S cells; MM1S cells, 6 days", "value": 644.3501, "unit": "nM * % relative viability"}, {"measurement": "LD50", "setting": "MM1.S cells; MM1S cells, 6 days, CellTiter-Glo", "value": 302.924, "unit": "nM"}, {"measurement": "RminAve", "setting": "MM1.S cells; MM1S cells, 6 days, negative = cell death vs T0", "value": "−99.8996", "unit": "%"}, {"measurement": "CTGlo Mean LD50 MM1.S 96 h", "setting": "MM1.S cells; payload alone, MM1.S, 96 h", "value": 98.2, "unit": "nM"}, {"measurement": "GI50", "setting": "LP-1 cells; Homo sapiens, LP-1, 144 h", "value": 112, "unit": "nM"}, {"measurement": "AUC (nM * % relative viability)", "setting": "LP-1 cells; LP1 cells, 6 days", "value": 643.9226, "unit": "nM * % relative viability"}, {"measurement": "LD50", "setting": "LP-1 cells; LP1 cells, 6 days, CellTiter-Glo", "value": 234.5168, "unit": "nM"}, {"measurement": "RminAve", "setting": "LP-1 cells; LP1 cells, 6 days, negative = cell death vs T0", "value": "−99.7195", "unit": "%"}, {"measurement": "GI50", "setting": "NCI-H929 cells; NCI-H929, 96 h, read-out: CTGlo Mean GI50 H929 96 h", "value": 75.5, "unit": "nM"}, {"measurement": "GI50", "setting": "NCI-H929 cells; NCI-H929, 144 h", "value": 119, "unit": "nM"}, {"measurement": "AUC (nM * % relative viability)", "setting": "NCI-H929 cells; NCIH929 cells, 6 days", "value": 646.6007, "unit": "nM * % relative viability"}, {"measurement": "LD50", "setting": "NCI-H929 cells; NCIH929 cells, 6 days, CellTiter-Glo", "value": 246.6292, "unit": "nM"}, {"measurement": "RminAve", "setting": "NCI-H929 cells; NCIH929 cells, 6 days, negative = cell death vs T0", "value": "−99.8009", "unit": "%"}, {"measurement": "CTGlo Mean LD50 H929 96 h", "setting": "NCI-H929 cells; payload alone, H929, 96 h", "value": 201, "unit": "nM"}]}]}
